Test results reported in patent US20210052589A1, “COMPOUNDS FOR TREATING ALZHEIMER'S DISEASE” (Amabiotics, priority 2018, published 2021).

Columns and labels:
Rat cortical neurons [1] = test: Neuron survival (number of MAP-2 positive neurons) after Aβ1-42 intoxication; assay type: cell-based; settings: for survival of neurons: p<0.05
Protocol: (§1) Rat cortical neurons are cultured as described by Callizot et al., (2013) with modifications. Briefly pregnant female rat (Wistar) of 15 days of gestation are killed. Foetuses are collected and immediately placed in ice-cold L15 Leibovitz medium with a 2% penicillin (10,000 U/mL) and streptomycin (10 mg/ml) solution (PS) and 1% bovine serum albumin (BSA). Cortex are treated for 20 min at 37° C. with a trypsin- EDTA solution at a final concentration of 0.05% trypsin and 0.02% EDTA. The dissociation is stopped by addition of Dulbecco's modified Eagle's medium (DMEM) with 4.5 g/L of glucose, containing DNAse I grade II (final concentration 0.5 mg/ml) and 10% fetal calf serum (FCS). Cells are mechanically dissociated by three forced passages through the tip of a 10-ml pipette. Cells are then centrifuged at 515×g for 10 min at 4° C. The supernatant is discarded, and the pellet is resuspended in a defined culture medium consisting of Neurobasal medium with a 2% solution of B27 supplement, 2 mmol/litter of L-glutamine, 2% of PS solution, 10 ng/mL of brain-derived neurotrophic factor (BDNF), 2% of heat-inactivated horse serum, 2% of heat-inactivated FCS, 1 g/L of glucose, 1 mM of sodium pyruvate, and 100 μM of non-essential amino acids. Viable cells are counted in a Neubauer cytometer, using the trypan blue exclusion test. The cells are seeded at a density of 45,000 per well in 96-well plates (for immunostaining) precoated with poly-L-lysine and are cultured at 37° C. in an air (95%)-CO2 (5%) incubator. For 96 wells plates, only 60 wells are used. The wells of first and last lines and columns are not used (to avoid the edge effect) and are filled with sterile water. The medium is changed every 2 days.
(§2) On day 10 of culture, queuine is dissolved in the culture medium and pre-incubated with primary cortical neurons for 24H, before Aβ1-42 exposure. Then on day 11 of culture, the cortical neurons are intoxicated with AB solutions. The Aβ1-42 preparation is done following the procedure described by Callizot et al., (2013). Briefly, Aβ1-42 peptide are dissolved in the defined culture medium mentioned above, at an initial concentration of 40 μmol/L. This solution is gently agitated for 3 days at 37° C. in the dark and immediately used after being properly diluted in culture medium to the concentration used (5 μM, 0.5μM oligomers). […]
(§3) Each compound is tested on 1 culture in a 96 well plate (6 wells per conditions). […] The following conditions are assessed:
(§4) 72 hours after Aβ1-42 application, the cell culture supernatant are collected cytokine quantification (e.g. TNFα) and the cortical neurons are fixed by a cold solution of ethanol (95%) and acetic acid (5%) for 5 min at −20° C. […]

Rat cortical neurons [2] = test: Total neurite network (length of MAP-2 positive neurite) after Aβ1-42 intoxication; assay type: cell-based
Protocol: as §1, §2, §3, §4

Tau = test: Hyperphosphorylation of Tau in neuron cytoplasm (AT100, overlapping Tau/MAP-2) after Aβ1-42 intoxication; assay type: cell-based, rat
Protocol: as §1
(§5) On day 10 of culture, queuine is dissolved in the culture medium and pre-incubated with primary cortical neurons for 24H, before Aβ1-42 exposure. Then on day 11 of culture, the cortical neurons are intoxicated with AB solutions. The Aβ1-42 preparation is done following the procedure described by Callizot et al., (2013). Briefly, Aβ1-42 peptide are dissolved in the defined culture medium mentioned above, at an initial concentration of 40 μmol/L. This solution is gently agitated for 3 days at 37° C. in the dark and immediately used after being properly diluted in culture medium to the concentration used (5 μM, 0.5μM oligomers).
(§6) Aβ1-42 preparation is added to a final concentration of 5μM (0.5 μM oligomers, ABO) diluted in control medium in presence of queuine, for 72 hours.
Each compound is tested on 1 culture in a 96 well plate (6 wells per conditions). For 96 wells plates, only 60 wells are used. The wells of first and last lines and columns are not used (to avoid the edge effect) and are filled with sterile water. Queuine is added 24h before Aβ1-42 application. The following conditions are assessed:
as §4

TNF-α = test: TNFa release in a culture of cortical neurons and microglia after Aβ1-42 injury (ELISA); assay type: cell-based, rat; settings: for TNFa (% of vehicle group): control 100.00, Aβ1-42 alone 126.75; for level of TNFα (in words): Aβ1-42 (5 μM)
Protocol: as §1, §5, §6
72 hours after Aβ1-42 application, the cell culture supernatant are collected cytokine quantification (e.g. TNFα) and the cortical neurons are fixed by a cold solution of ethanol (95%) and acetic acid (5%) for 5 min at −20° C. After permeabilization with 0.1% of saponin, cells are incubated for 2 hours with: • a) chicken polyclonal antibody antimicrotubule-associated-protein 2 (MAP-2) at dilution of 1/1000 in PBS containing 1% fetal calf serum and 0.1% of saponin (this antibody stains specifically cell bodies and neurites, allowing study of neuronal cell death and neurite network). • b) mouse monoclonal anti-tau phosphor (Thr212, Ser214) at the dilution of 1/100 in PBS containing 1% foetal calf serum and 0.1% of saponin. • c) rabbit polyclonal antibody anti-SIRP alpha/CD172a at dilution of 1/400 in PBS containing 1% fetal calf serum and 0.1% of saponin (this antibody stains specifically the microglia and is allow to evaluate the activation of the microglial cells).
In order to assess the activation of microglia in the cell culture, the levels of TNF-α are quantified in cell culture supernatant after 72h (end of the culture) by ELISA.

[3] = queuine 300 nM added 24h before Aβ1-42 (5 μM, 72 H), p<0.05
[4] = queuine 1 μM added 24h before Aβ1-42 (5 μM, 72 H), p<0.05
[5] = queuine 3 μM added 24h before Aβ1-42 (5 μM, 72 H), p<0.05
[6] = BDNF 50 ng/ml, Aβ1-42 (5 μM, 72 H)

## 7-(3,4-trans-4,5-cis-dihydroxy-1-cyclopenten-3-ylaminomethyl)-7-deazaguanine [queuine]
Rat cortical neurons [1]; queuine 100 nM added 24h before Aβ1-42 (5 μM, 72 H)
  survival of neurons: significantly restores the survival of neurons
Rat cortical neurons [1]; queuine 300 nM added 24h before Aβ1-42 (5 μM, 72 H)
  survival of neurons: significantly restores the survival of neurons
Rat cortical neurons [1]; queuine 1 μM added 24h before Aβ1-42 (5 μM, 72 H)
  survival of neurons: significantly restores the survival of neurons
Rat cortical neurons [2]; [3]
  neurite network: significantly restores the neurite network
Rat cortical neurons [2]; [4]
  neurite network: significantly restores the neurite network
Rat cortical neurons [2]; [5]
  neurite network: significantly restores the neurite network
Tau; queuine 100 nM added 24h before Aβ1-42 (5 μM, 72 H), p<0.05
  Tau hyperphosphorylation: restores the level of hyperphosphorylation of Tau
Tau; [3]
  Tau hyperphosphorylation: restores the level of hyperphosphorylation of Tau
Tau; [4]
  Tau hyperphosphorylation: restores the level of hyperphosphorylation of Tau
Tau; [5]
  Tau hyperphosphorylation: restores the level of hyperphosphorylation of Tau
TNF-α; Aβ1-42 (5 μM, 72 H) + queuine (300 nM)
  TNFa (% of vehicle group): 105.54 % of vehicle group
TNF-α; Aβ1-42 (5 μM, 72 H) + queuine (1 μM)
  TNFa (% of vehicle group): 87.33 % of vehicle group
TNF-α; Aβ1-42 (5 μM, 72 H) + queuine (3 μM)
  TNFa (% of vehicle group): 93.32 % of vehicle group
TNF-α; queuine 300 nM, p<0.05
  level of TNFα (in words): restores the level of TNFα
TNF-α; queuine 1 μM, p<0.05
  level of TNFα (in words): restores the level of TNFα
TNF-α; queuine 3 μM, p<0.05
  level of TNFα (in words): restores the level of TNFα

B1: BDNF: brain-derived neurotrophic factor, used at 50 ng/ml as positive control and reference compound (protein, UniProt P23560 19-247, looked up)
Neurotrophic factor BDNF …: APMKEANIRGQGGLAYPGVRTHGTLESVNGPKAGSRGLTSLADTFEHVIEELLDEDQKVRPNEENNKDADLYTSRVMLSSQVPLEPPLLFLLEEYKNYLDAANMSMRVRRHSDPARRGELSVCDSISEWVTAADKKTAVDMSGGTVTVLEKVPVSKGQLKQYFYETKCNPMGYTKEGCRGIDKRHWNSQCRTTQSYVRALTMDSKKRIGWRFIRIDTSCVCTLTIKRGR
Rat cortical neurons [1]; [6]
  level neuronal staining for MAP-2 (number of cortical neurons): restores the level neuronal staining for MAP-2
Rat cortical neurons [2]; [6]
  neurite network: restores the neurite network
Tau; [6]
  Tau hyperphosphorylation: decreases Tau hyperphosphorylation
TNF-α; Aβ1-42 (5 μM, 72 H) + BDNF (50 ng/ml)
  TNFa (% of vehicle group): 102.14 % of vehicle group
TNF-α; BDNF 50 ng/ml
  level of TNFα (in words): decreases the level of TNFα
